Here are results for 1 compound from patent US7772265B2, “2-oxadiazolechromone derivatives” (Merck Patent GmbH, priority 2002, dated 2010).

The term pIC50 denotes the negative decadic logarithm of the IC50, by convention in mol/L.

Assay [1] deals with Tie2 (Homo sapiens, UniProt Q02763). Put plainly: Tie2 inhibition. Type of assay: biochemical. The following applies: read-out: IC50 Tie2 inhibitor.
Assay [2] has as its target PKB (Homo sapiens, UniProt P31749). Put plainly: PKB inhibition (comparative measurement). The format is biochemical. The following applies: read-out: IC50 PKB inhibitor.

Molecules are shown by their SMILES. pIC50: −log10 of the molar value. A value given as a limit tells only on which side of the number the result lay.

Sequence of PKB (P31749 whole entry, species assumed): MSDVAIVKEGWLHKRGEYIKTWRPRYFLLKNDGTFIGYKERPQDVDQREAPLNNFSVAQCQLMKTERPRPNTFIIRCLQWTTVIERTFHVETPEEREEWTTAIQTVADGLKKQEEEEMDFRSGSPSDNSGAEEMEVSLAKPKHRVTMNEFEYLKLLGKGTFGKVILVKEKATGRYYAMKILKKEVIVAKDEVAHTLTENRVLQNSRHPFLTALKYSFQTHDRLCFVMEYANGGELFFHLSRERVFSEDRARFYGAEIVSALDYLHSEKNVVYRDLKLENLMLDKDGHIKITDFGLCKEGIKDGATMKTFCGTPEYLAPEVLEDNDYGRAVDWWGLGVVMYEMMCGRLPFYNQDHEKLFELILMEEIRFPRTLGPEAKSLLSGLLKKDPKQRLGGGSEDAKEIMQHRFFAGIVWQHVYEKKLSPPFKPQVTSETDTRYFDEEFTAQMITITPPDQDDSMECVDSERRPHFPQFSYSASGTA
Sequence of Tie2 (Q02763 23-1124, species assumed): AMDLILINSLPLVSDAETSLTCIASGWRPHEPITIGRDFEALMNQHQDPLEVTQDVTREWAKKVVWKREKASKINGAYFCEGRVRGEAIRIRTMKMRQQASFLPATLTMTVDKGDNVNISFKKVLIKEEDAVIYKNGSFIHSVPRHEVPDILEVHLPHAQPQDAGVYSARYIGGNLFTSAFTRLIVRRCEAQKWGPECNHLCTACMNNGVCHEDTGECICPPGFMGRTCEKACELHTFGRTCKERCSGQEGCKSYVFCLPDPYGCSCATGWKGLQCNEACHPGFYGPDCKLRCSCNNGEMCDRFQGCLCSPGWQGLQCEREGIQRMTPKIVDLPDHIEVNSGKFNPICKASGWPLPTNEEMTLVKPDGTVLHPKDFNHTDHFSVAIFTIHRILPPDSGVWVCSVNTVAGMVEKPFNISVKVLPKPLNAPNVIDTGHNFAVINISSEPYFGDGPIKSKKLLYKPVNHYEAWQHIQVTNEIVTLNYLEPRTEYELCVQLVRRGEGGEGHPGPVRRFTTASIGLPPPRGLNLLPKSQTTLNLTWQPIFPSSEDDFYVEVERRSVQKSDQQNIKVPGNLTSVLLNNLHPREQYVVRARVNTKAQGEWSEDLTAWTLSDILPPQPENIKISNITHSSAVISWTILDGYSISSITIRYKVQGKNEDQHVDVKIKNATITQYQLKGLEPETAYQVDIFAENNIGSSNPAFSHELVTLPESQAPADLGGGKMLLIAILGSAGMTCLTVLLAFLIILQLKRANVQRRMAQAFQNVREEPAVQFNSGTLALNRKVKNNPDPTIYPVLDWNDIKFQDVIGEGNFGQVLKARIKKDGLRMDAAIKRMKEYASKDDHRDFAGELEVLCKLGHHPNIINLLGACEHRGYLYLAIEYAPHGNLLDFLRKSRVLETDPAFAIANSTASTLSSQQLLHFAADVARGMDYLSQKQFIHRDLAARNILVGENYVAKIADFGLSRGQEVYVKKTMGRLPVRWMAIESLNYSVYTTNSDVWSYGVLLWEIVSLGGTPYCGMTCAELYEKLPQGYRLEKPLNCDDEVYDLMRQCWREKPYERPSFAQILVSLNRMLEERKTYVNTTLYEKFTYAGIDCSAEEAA

Turning to `CC(C)(C)c1ccc(-c2noc(-c3cc(=O)c4cc(O)ccc4o3)n2)cc1` [6-hydroxy-2-[3-(4-tert-butylphenyl)-1,2,4-oxadiazol-5-yl]-chromone], the results for the pIC50 in assay [1] and in assay [2] were no more than 5.00 and less than 4.52, respectively.
